Laboratory results as given in patent publication US20140357688A1, “METHOD FOR INHIBITING EZH2 EXPRESSION IN BREAST CANCER CELLS” (Yung Shin Pharm. Ind. Co., Ltd., priority 2013, published 2014).

What was measured:
Format in all cases: cell-based, human
Akt = experiment: Western blot of Akt activation; details: 3 μM YC-1
Method: (A) MDA-MB-468 cells were incubated with 3 μM YC-1 for indicated time. Cells were harvested for the detection of phospho-Akt (Ser473), Akt, and PCNA. (B) Cells were pretreated with LY294002 (LY, 10 μM) for 1 h followed by 3 μM YC-1 induction for 6 h. (C) MDA-MB-468 cells were incubated with 3 μM YC-1 for indicated time. Cells were harvested for the detection of phospho-CDK1 (Thr161), CDK1, phospho-EZH2 ([…]), EZH2, and β-actin expression with western blot analysis. Levels of EZH2 phosphorylation were calculated by phospho-EZH2 normalized by total EZH2. (D) Cells were treated with YC-1 for 6 h in the absence or presence of roscovitine (Rosc, 20 μM). Cells were harvested and analyzed by western blotting for protein expression. (E) CDK1 knockdown of MDA-MB-468 cells were induced with 3 μM YC-1 for 4 h and followed by western blot analysis.
Cells were lysed in PBS containing proteinase inhibitor and phosphatase inhibitors and sonication. Protein concentration was measured using the Bio-Rad protein assay kit (Bio-Rad Laboratories, Hercules, Calif., USA). Lysate protein was separated by electrophoresis of SDS-PAGE and transferred to Immobilon P membrane (EMD Millipore). […] The band intensities were analyzed and quantified by the Multi Gauge software (Fuji Photo Film).

MDA-MB-468 cells [1] = experiment: Morphological analysis of apoptosis by fluorescent staining (FDA/PI); details: 3 μM YC-1, after 6 h-treatment
Method: (§1) (A) Cells were treated with indicated concentration of YC-1 for 6, 24, and 48 h. Cell viability was determined by MTT method. (B) MDA-MB-468 cells were treated with 3 μM YC-1 for 0, 6, and 12 h, and then stained with fluorescence diacetate (FDA) and propidium iodide (PI). Cell morphology was assessed by fluorescence microscopy with magnification ×20 (upper 3 rows) or ×40 (lowest row). (C) MDA-MB-468 cells were treated with 3 μM YC-1 for 24 h, cells were lysed and subjected to western blot analysis described in Materials and Methods. β-actin is a loading control. Blots were representative of results from three independent experiments. (D) Cells were treated with vehicle (DMSO, as control) or 3 μM YC-1 for 6 h. The cell cycles were analyzed by flow cytometry. (E) Cells were treated with indicated concentration of YC-1 and then performed with clonogenic assay.
Vital and apoptotic cells were observed under staining with fluorescein diacetate (2 mg/ml) and propidium iodide (4 mg/ml) for 10 min. Cells were visualized and recorded on a LeicaDC300 microscope with digital camera.

Ring1B = experiment: Western blot of PRC1 components in MDA-MB-468 cells
Method: (§2) (A)(B) Cells were treated with indicated concentration of YC-1 for 24 h (A) or 3 μM of YC-1 for indicated time (B). Cells were harvested and performed with western blotting analysis. […] The levels of protein expression were quantitated and shown under blots. (C) Cells were transfected with EZH2 shRNA for 0, 1, 2, 3, and 4 days and collected for determination of cell viability (left) and protein expression (right). (D)(E) After 4 days of EZH2 knockdown, cells were incubated with 3 μM YC-1 for 4 h and detected cell viability (D) and protein contents (E). (F) Tumor specimens were isolated and protein was extracted for western blot analysis.
(§3) Cells were lysed in PBS containing proteinase inhibitor and phosphatase inhibitors and sonication. Protein concentration was measured using the Bio-Rad protein assay kit (Bio-Rad Laboratories, Hercules, Calif., USA). Lysate protein was separated by electrophoresis of SDS-PAGE and transferred to Immobilon P membrane (EMD Millipore). The membranes were incubated with appropriate primary antibodies and horseradish peroxidase-conjugated secondary antibodies (EMD Millipore). The signaling was visualized using Chemiluminescence substrate kit (EMD Millipore) and collected by the Luminesence image analyzer, LAS4000 (Fuji Photo Film Co., Tokyo, Japan). The band intensities were analyzed and quantified by the Multi Gauge software (Fuji Photo Film).

Ring1A = experiment: as above
Method: as §2, §3

Bmi1 = experiment: as above
Method: as §2, §3

EZH2-c-Cbl-ERK = experiment: Co-immunoprecipitation of c-Cbl and EZH2; details: 3 μM YC-1 with MG-132; after 1 h, maximum at 2 h
Method: (A) c-Cbl knockdown MDA-MB-468 cells were treated with 3 μM YC-1 for 4 h. Cell were harvested for detection of protein expression. (B) Cells were treated with 3 μM YC-1 for indicated time. Cells were collected and c-Cbl phosphorylation was detected. (C) Cells were pretreated with MG-132 (3 μM) or NH4Cl (30 μM) for 1 h followed by 3 μM YC-1 induction for 6 h. (D) Cells were pretreated with MG-132 and followed by 3 μM YC-1 induction for indicated time. Cells were harvested and lysed for immunoprecipitation assay. The association between c-Cbl and EZH2 were determined by western blotting analysis and probed with anti-EZH2 or anti-c-Cbl antibody. Membranes were stripped and reprobed with anti-c-Cbl or anti-EZH2 antibody to check the input. (E) Cells were preincubated with or without PD98059 (10 μM) in the presence of MG-132 for 1 h prior to 2 h-treatment of 3 μM YC-1. Then cells were collected and lysate protein was subjected for the detection of the c-Cbl-EZH2 complexes.
Cells were lysed with RIPA buffer (50 mM Tris-C1, pH 7.5, 1% Igepal CA-630, 150 mM NaCl, 1 mM EDTA, 1 mM Na3VO4, 1 mM NaF, 1 mM PMSF, 10 μg/ml of leupeptin, aprotinin, and pepstatin A) for 30 min at 4° C. One milligram of cell lysate was incubated with anti-EZH2 or anti-c-Cbl antibody and protein A-Sepharose beads, then gently rotated at 4° C. overnight. […]

H3K27me3 = experiment: Western blot of H3K27me3 in MDA-MB-468 cells
Method: as §2, §3

MDA-MB-468 cells [2] = experiment: Cell cycle analysis by flow cytometry; details: 3 μM YC-1, 6 h post-treatment
Method: as §1
Cells (1×10^6) treated with YC-1 were fixed in cold 70% ethanol overnight. Cells were stained with staining solution (0.5% Triton X-100, 2 mg/ml propidium iodide, 1 mg/ml RNase A in 1×PBS), followed by analysis on a FACSCalibur flow cytometer (BD Biosciences, Mountain View, Calif., USA).

EZH2 = experiment: Western blot of EZH2 protein expression in MDA-MB-468 cells
Method: as §2, with “Cells” for “(A)(B) Cells were treated with indicated concentration of YC-1 for 24 h (A) or 3 μM of YC-1 for indicated time (B). Cells”
as §3

## OCc1ccc(-c2nn(Cc3ccccc3)c3ccccc23)o1 [YC-1, 3-(5′-hydroxymethyl-2′-furyl)-1-benzyl indazole]
Akt
  Akt activation: activated
MDA-MB-468 cells [1]
  morphological changes (apoptosis): obviously morphological changes with apoptotic characteristics
Ring1B
  Ring1B protein: decreased
Ring1A
  Ring1A protein: decreased
Bmi1
  Bmi1 protein: decreased
EZH2-c-Cbl-ERK
  complex formation of EZH2-c-Cbl-ERK: induced the complex formation
H3K27me3
  H3K27me3 level: kept unchanged
MDA-MB-468 cells [2]; control 5.9%
  sub-G1 population: 13.5%
MDA-MB-468 cells [2]; control 57.2%
  percentage of cells at the G1 phase: 64.8%
EZH2; 3 μM YC-1, 2 h
  inhibition of EZH2 protein: about 18%
EZH2; 24 h-incubation, MDA-MB-468, read-out: IC50, inhibition of EZH2 expression
  IC50: 540 ± 40 nM
